Measured values as given in the supplement of paper PMC11451515.

System: SEM cells
Experiment: cell viability relative to DMSO control; higher = less cytotoxic
Conditions: 48 h
Summary of the method: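 Viability values are per-plate percentages of DMSO wells, with background from cell-free wells. Library compounds in DMSO were pin-dosed, in an 11-point threefold series from 47 μM to 0.79 nM, onto NOMO1 or SEM (500 cells/well) or P12-Ichikawa (1000 cells/well) leukemia cells in 1536-well plates (5 μl). Those cells had been adapted for at least four passages in each medium, and CellTiter-Glo One luminescence was read after 48 h at 37°C.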

[1] = HPLM + 10% dialyzed FBS, 0.000781 µM
[2] = HPLM + 10% dialyzed FBS, 0.00234 µM
[3] = HPLM + 10% dialyzed FBS, 0.00702 µM
[4] = HPLM + 10% dialyzed FBS, 0.0211 µM
[5] = HPLM + 10% dialyzed FBS, 0.0632 µM
[6] = HPLM + 10% dialyzed FBS, 0.19 µM
[7] = HPLM + 10% dialyzed FBS, 0.569 µM
[8] = HPLM + 10% dialyzed FBS, 1.71 µM
[9] = HPLM + 10% dialyzed FBS, 5.12 µM
[10] = HPLM + 10% dialyzed FBS, 15.4 µM
[11] = HPLM + 10% dialyzed FBS, 46.1 µM
[12] = RPMI 5 mM glucose + 10% FBS, 0.000781 µM
[13] = RPMI 5 mM glucose + 10% FBS, 0.00234 µM
[14] = RPMI 5 mM glucose + 10% FBS, 0.00702 µM
[15] = RPMI 5 mM glucose + 10% FBS, 0.0211 µM
[16] = RPMI 5 mM glucose + 10% FBS, 0.0632 µM
[17] = RPMI 5 mM glucose + 10% FBS, 0.19 µM
[18] = RPMI 5 mM glucose + 10% FBS, 0.569 µM
[19] = RPMI 5 mM glucose + 10% FBS, 1.71 µM
[20] = RPMI 5 mM glucose + 10% FBS, 5.12 µM
[21] = RPMI 5 mM glucose + 10% FBS, 15.4 µM
[22] = RPMI 5 mM glucose + 10% FBS, 46.1 µM
[23] = RPMI 5 mM glucose + 10% dialyzed FBS, 0.000781 µM
[24] = RPMI 5 mM glucose + 10% dialyzed FBS, 0.00234 µM
[25] = RPMI 5 mM glucose + 10% dialyzed FBS, 0.00702 µM
[26] = RPMI 5 mM glucose + 10% dialyzed FBS, 0.0211 µM
[27] = RPMI 5 mM glucose + 10% dialyzed FBS, 0.0632 µM
[28] = RPMI 5 mM glucose + 10% dialyzed FBS, 0.19 µM
[29] = RPMI 5 mM glucose + 10% dialyzed FBS, 0.569 µM
[30] = RPMI 5 mM glucose + 10% dialyzed FBS, 1.71 µM
[31] = RPMI 5 mM glucose + 10% dialyzed FBS, 5.12 µM
[32] = RPMI 5 mM glucose + 10% dialyzed FBS, 15.4 µM
[33] = RPMI 5 mM glucose + 10% dialyzed FBS, 46.1 µM

SMILES | cell viability [1] [%] | cell viability [2] [%] | cell viability [3] [%] | cell viability [4] [%] | cell viability [5] [%] | cell viability [6] [%] | cell viability [7] [%] | cell viability [8] [%] | cell viability [9] [%] | cell viability [10] [%] | cell viability [11] [%] | cell viability [12] [%] | cell viability [13] [%] | cell viability [14] [%] | cell viability [15] [%] | cell viability [16] [%] | cell viability [17] [%] | cell viability [18] [%] | cell viability [19] [%] | cell viability [20] [%] | cell viability [21] [%] | cell viability [22] [%] | cell viability [23] [%] | cell viability [24] [%] | cell viability [25] [%] | cell viability [26] [%] | cell viability [27] [%] | cell viability [28] [%] | cell viability [29] [%] | cell viability [30] [%] | cell viability [31] [%] | cell viability [32] [%] | cell viability [33] [%]
COC1=CC=C(C(=C1)OC(C)C)C/2=N/[C@@H]([C@@H](N2C(=O)N3CCNC(=O)C3)C4=CC=C(Cl)C=C4)C5=CC=C(Cl)C=C5 | 92.4 | 110 | 112 | 106 | 87.1 | 56.5 | 42.5 | 33.1 | 29.2 | 16.1 | 5.42 | 100 | 125 | 99.9 | 105 | 60.6 | 55.6 | 46.5 | 34.5 | 23.6 | 6.03 | 1.48 | 101 | 106 | 101 | 83.5 | 79.8 | 45.1 | 41.1 | 27.8 | 20.5 | 12.3 | 3.12
COC(=O)c1ccc2c(c1)NC(=O)/C2=C(\Nc1ccc(N(C)C(=O)CN2CCN(C)CC2)cc1)c1ccccc1 | 76.7 | 79.4 | 60.3 | 30.1 | 48.9 | 50.9 | 46.4 | 38.3 | 37.9 | 30.5 | 23.8 | 96.1 | 92.7 | 84.2 | 31.7 | 68 | 60 | 57.5 | 43.8 | 41.3 | 36.7 | 24.5 | 82.9 | 83.2 | 60.1 | 30.8 | 49.2 | 44.6 | 38.7 | 35.9 | 30.2 | 29.8 | 25.4
COc1ccc(C(=O)c2c(C)n(CCN3CCOCC3)c3cc(I)ccc23)cc1 | 85.3 | 102 | 111 | 109 | 105 | 110 | 103 | 93.8 | 98.5 | 91.7 | 66.4 | 88 | 108 | 104 | 93.6 | 106 | 111 | 107 | 111 | 96.4 | 95.1 | 52 | 102 | 93.5 | 117 | 115 | 115 | 123 | 132 | 129 | 107 | 99.1 | 60.3
CCCCCNC(=O)N1CCC(CN(Cc2ccc(Cl)cc2)Cc2ccc([N+](=O)[O-])s2)C1 (stereo not drawn) |  |  |  |  |  |  |  |  |  |  |  | 113 | 118 | 129 | 116 | 134 | 120 | 122 | 126 | 121 | 79.5 | 56.1 | 113 | 134 | 108 | 107 | 114 | 128 | 121 | 127 | 132 | 102 | 48.2
Nc1ncnc2c1ncn2[C@@H]1O[C@H](CO)C[C@H]1O | 95.8 | 98 | 111 | 106 | 111 | 101 | 103 | 97.4 | 79.7 | 59.4 | 41.2 | 95 | 96 | 99.6 | 98.7 | 104 | 93.2 | 95.4 | 93.6 | 97.8 | 73 | 67.7 | 86.7 | 93.4 | 87.9 | 99.7 | 96.1 | 91.7 | 95.6 | 89.6 | 91.1 | 65 | 41.7
CCCCOc1c(C(=O)c2c(F)cc(C)cc2F)cnc2[nH]ncc12 | 107 | 111 | 104 | 110 | 115 | 108 | 108 | 92 | 70.4 | 64.1 | 30.9 | 104 | 105 | 103 | 113 | 114 | 118 | 114 | 89.6 | 60.6 | 71.8 | 35.6 | 93.2 | 96.5 | 96.9 | 86.8 | 107 | 106 | 104 | 84.4 | 71.6 | 56.8 | 25.3
Cc1csc(-c2nnc(Nc3ccc(Oc4ncccc4-c4ccnc(N)n4)cc3)c3ccccc23)c1 | 104 | 114 | 114 | 56 | 46 | 48.9 | 45 | 42.1 | 32.5 | 36.5 | 34.2 | 108 | 100 | 102 | 55.2 | 25.5 | 24.5 | 23.9 | 28.6 | 18.7 | 18.7 | 21 | 94 | 107 | 115 | 36.4 | 30 | 34 | 34.6 | 29.1 | 29.5 | 28.5 | 28.5
CC(C)c1cc(C(C)C)c(CC(=O)N[S+](=O)([O-])Oc2c(C(C)C)cccc2C(C)C)c(C(C)C)c1 | 93.7 | 108 | 107 | 96.2 | 100 | 106 | 108 | 102 | 99.7 | 99 | 95.1 | 114 | 119 | 114 | 121 | 114 | 121 | 116 | 115 | 130 | 122 | 115 | 90.5 | 104 | 103 | 104 | 108 | 104 | 103 | 97.3 | 96.8 | 88.6 | 93.3
